Experimental data as given in the NIST ThermoML archive (doi:10.1016/j.jct.2013.08.031).

Assay: mn = molality of the nth substance listed, in mol/kg
Conditions: 74.66 kPa, Liquid, Vibrating tube method

CC(C)C[N+](CC(C)C)(CC(C)C)CC(C)C.[Br-] [tetra-iso-butyl ammonium bromide] + O
mass density [kg/m3]
Conditions | m1 = 0.01022 | m1 = 0.02021 | m1 = 0.02983 | m1 = 0.03847 | m1 = 0.04829 | m1 = 0.05621 | m1 = 0.06888 | m1 = 0.07666 | m1 = 0.08623 | m1 = 0.1002
298.15 K | 997.574 | 998.092 | 998.59 | 999.027 | 999.524 | 999.922 | 1000.56 | 1000.96 | 1001.43 | 1002.15
303.15 K | 996.171 | 996.676 | 997.167 | 997.6 | 998.101 | 998.499 | 999.123 | 999.518 | 999.988 | 1000.7
308.15 K | 994.553 | 995.043 | 995.531 | 995.96 | 996.462 | 996.855 | 997.478 | 997.85 | 998.324 | 999.035

CCCC[N+](CCCC)(CCCC)CCCC.[Br-] [tetrabutylammonium bromide] + O
mass density [kg/m3]
Conditions | m1 = 0.01143 | m1 = 0.02179 | m1 = 0.02564 | m1 = 0.03767 | m1 = 0.0459 | m1 = 0.05855 | m1 = 0.0711 | m1 = 0.07968 | m1 = 0.09066 | m1 = 0.1003
298.15 K | 997.306 | 997.542 | 997.632 | 997.89 | 998.083 | 998.37 | 998.631 | 998.818 | 999.091 | 999.267
303.15 K | 995.897 | 996.124 | 996.207 | 996.459 | 996.642 | 996.918 | 997.168 | 997.351 | 997.608 | 997.806
308.15 K | 994.271 | 994.493 | 994.567 | 994.819 | 994.986 | 995.247 | 995.487 | 995.662 | 995.912 | 996.121

CCCC[N+](CCCC)(CC(C)C)CC(C)C.[Br-] [N-butyl-N,N-bis(2-methylpropyl)-1-butanaminium bromide] + O
mass density [kg/m3]
Conditions | m1 = 0.01065 | m1 = 0.01998 | m1 = 0.0287 | m1 = 0.03815 | m1 = 0.04991 | m1 = 0.05935 | m1 = 0.06884 | m1 = 0.08078 | m1 = 0.0922 | m1 = 0.1044
298.15 K | 997.571 | 998.046 | 998.493 | 998.971 | 999.575 | 1000.05 | 1000.54 | 1001.16 | 1001.72 | 1002.35
303.15 K | 996.173 | 996.647 | 997.094 | 997.573 | 998.175 | 998.652 | 999.131 | 999.751 | 1000.31 | 1000.94
308.15 K | 994.575 | 995.047 | 995.492 | 995.975 | 996.571 | 997.048 | 997.529 | 998.152 | 998.702 | 999.327

CCCC[N+](CCCC)(C(C)CC)C(C)CC.[Br-] (stereo not given) [N-butyl-N,N-bis(1-methylpropyl)-1-butanaminium bromide] + O
mass density [kg/m3]
Conditions | m1 = 0.01181 | m1 = 0.02026 | m1 = 0.03102 | m1 = 0.04017 | m1 = 0.05043 | m1 = 0.0598 | m1 = 0.06968 | m1 = 0.08191 | m1 = 0.09038 | m1 = 0.1036
298.15 K | 997.635 | 998.067 | 998.623 | 999.106 | 999.638 | 1000.14 | 1000.66 | 1001.3 | 1001.76 | 1002.47
303.15 K | 996.234 | 996.663 | 997.215 | 997.699 | 998.223 | 998.719 | 999.241 | 999.878 | 1000.33 | 1001.03
308.15 K | 994.634 | 995.062 | 995.611 | 996.096 | 996.617 | 997.117 | 997.631 | 998.265 | 998.711 | 999.421

CCC(C)[N+](C(C)CC)(C(C)CC)C(C)CC.[Br-] (stereo not given) [tetra-sec-butyl ammonium bromide] + O
mass density [kg/m3]
Conditions | m1 = 0.0097 | m1 = 0.01981 | m1 = 0.03014 | m1 = 0.04066 | m1 = 0.04983 | m1 = 0.0598 | m1 = 0.07027 | m1 = 0.07997 | m1 = 0.08984 | m1 = 0.1018
298.15 K | 997.488 | 997.958 | 998.439 | 998.953 | 999.408 | 999.909 | 1000.44 | 1000.95 | 1001.45 | 1002.08
303.15 K | 996.085 | 996.548 | 997.029 | 997.518 | 997.974 | 998.449 | 998.977 | 999.449 | 999.971 | 1000.56
308.15 K | 994.477 | 994.931 | 995.392 | 995.891 | 996.309 | 996.799 | 997.293 | 997.778 | 998.299 | 998.923
